# Measurements taken from patent US4060611A, “3-Carbamylbenzyl-7-(phenylglycyl)amino cephalosporin derivatives” (Beecham Group Limited, priority 1975, dated 1977).
# Tests used:
# Format in all cases: cell-based
# [1] = tested on: B. subtilis; assay: MIC, growth inhibition on nutrient agar; settings: Bacillus subtilis, nutrient agar (medium not given for Examples 6, 7), read-out: minimum inhibitory concentration (MIC)
# [2] = tested on: Staph. aureus Oxford; assay: MIC, growth inhibition on nutrient agar; settings: Staphylococcus aureus, nutrient agar (medium not given for Examples 6, 7), read-out: minimum inhibitory concentration (MIC)
# [3] = tested on: Staph. aureus Russell; assay: MIC, growth inhibition on nutrient agar; settings: Staphylococcus aureus, nutrient agar (medium not given for Examples 6, 7), read-out: minimum inhibitory concentration (MIC)
# [4] = tested on: β-haemolytic strep. CN10; assay: MIC, growth inhibition on nutrient agar; settings: nutrient agar (medium not given for Examples 6, 7), read-out: minimum inhibitory concentration (MIC)
# [5] = tested on: E. coli JT1; assay: MIC, growth inhibition on nutrient agar; settings: Escherichia coli, nutrient agar (medium not given for Examples 6, 7), read-out: minimum inhibitory concentration (MIC)
# [6] = tested on: Klebsiella aerogenes A; assay: MIC, growth inhibition on nutrient agar; settings: nutrient agar (medium not given for Examples 6, 7), read-out: minimum inhibitory concentration (MIC)
# [7] = tested on: P. mirabilis C977; assay: MIC, growth inhibition on nutrient agar; settings: Proteus mirabilis, nutrient agar (medium not given for Examples 6, 7), read-out: minimum inhibitory concentration (MIC)
# [8] = tested on: P. rettgeri; assay: MIC, growth inhibition on nutrient agar; settings: Providencia rettgeri, nutrient agar (medium not given for Examples 6, 7), read-out: minimum inhibitory concentration (MIC)
# [9] = tested on: P. morganii; assay: MIC, growth inhibition; settings: Morganella morganii, medium not stated, read-out: minimum inhibitory concentration (MIC)
# [10] = tested on: Salm. typhi; assay: MIC, growth inhibition on nutrient agar; settings: Salmonella enterica, read-out: minimum inhibitory concentration (MIC)
# [11] = tested on: Shig. sonnei; assay: MIC, growth inhibition on nutrient agar; settings: Shigella sonnei, read-out: minimum inhibitory concentration (MIC)
# [12] = tested on: P. mirabilis 889; assay: MIC, growth inhibition on nutrient agar; settings: Proteus mirabilis, read-out: minimum inhibitory concentration (MIC)
# [13] = tested on: P. mirabilis 899; assay: MIC, growth inhibition on nutrient agar; settings: Proteus mirabilis, read-out: minimum inhibitory concentration (MIC)
# [14] = tested on: Enterobacter cloacae N1; assay: MIC, growth inhibition on nutrient agar; settings: nutrient agar (medium not stated for Example 6), read-out: minimum inhibitory concentration (MIC)
MIC [8] [µg/mL],MIC [9] [µg/mL],SMILES,MIC [1] [µg/mL],MIC [2] [µg/mL],MIC [3] [µg/mL],MIC [4] [µg/mL],MIC [5] [µg/mL],MIC [6] [µg/mL],MIC [7] [µg/mL],MIC [10] [µg/mL],MIC [11] [µg/mL],MIC [12] [µg/mL],MIC [13] [µg/mL],MIC [14] [µg/mL]
12.5,5,"CN(C(=O)C=Cc1ccccc1)C(=O)N[C@@H](C(=O)N[C@@H]1C(=O)N2C(C(=O)O)=C(Cc3ccc(C(N)=O)cc3)CS[C@H]12)c1ccccc1 [Example 7, 3-(p-Carbamoylbenzyl)-7β-[D-α-(3-cinnamoyl-3-methyluriedo)phenylacetamido]ceph-3-em-4-carboxylic acid]",5,0.1,12.5,0.05,5,5,5,–,–,–,–,–
–,–,"NC(=O)c1cc(CC2=C(C(=O)O)N3C(=O)[C@@H](NC(=O)[C@H](N)c4ccccc4)[C@H]3SC2)cc(C(N)=O)c1 [Example 5, 3-(3,5-dicarbamoylbenzyl)-7β-(D-α-phenylglycyl)amino-ceph-3-em-4-carboxylic acid]",2.5,0.5,5,0.5,–,5,–,10,10,–,–,–
–,–,"NC(=O)c1cccc(CC2=C(C(=O)O)N3C(=O)[C@@H](NC(=O)[C@H](N)c4ccccc4)[C@H]3SC2)c1 [Example 4, 3-(m-Carbamoylbenzyl)-7β-(D-α-phenylglycyl)amino-ceph-3-em-4-carboxylic acid]",0.1,0.1,2.5,0.05,–,5,–,10,–,10,–,–
–,–,"NC(=O)c1ccc(CC2=C(C(=O)O)N3C(=O)[C@@H](NC(=O)[C@H](N)c4ccccc4)[C@H]3SC2)cc1 [Example 1, 3-(p-Carbamoylbenzyl)-7β-(D-α-phenylglycyl)amino-ceph-3-em-4-carboxylic acid]",0.1,0.1,2.5,0.01,2.5,1,–,2.5,2.5,2.5,–,–
–,–,"NC(=O)c1ccc(CC2=C(C(=O)O)N3C(=O)[C@@H](NC(=O)[C@H](N)c4ccc(O)cc4)[C@H]3SC2)cc1 [Example 2, 3-(p-Carbamoylbenzyl)-7β-(D-α-p-hydroxyphenylglycyl)amino-ceph-3-em-4-carboxylic acid]",0.25,0.1,1,0.02,2.5,1,2.5,0.5,2.5,–,5,–
5,–,"NC(=O)c1ccc(CC2=C(C(=O)O)N3C(=O)[C@@H](NC(=O)C(C(=O)Oc4ccccc4)c4ccsc4)[C@H]3SC2)cc1 (mixture of isomers) [Example 6, 3-(p-Carbamoylbenzyl)-7β-(DL-α-phenoxycarbonyl-3^1-thienylacetamido)ceph-3-em-4-carboxylic acid]",25,12.5,25,25,5,2.5,12.5,–,–,–,–,12.5

SMILES,MIC [8] [µg/mL],MIC [9] [µg/mL],MIC [1] [µg/mL],MIC [2] [µg/mL],MIC [3] [µg/mL],MIC [4] [µg/mL],MIC [5] [µg/mL],MIC [6] [µg/mL],MIC [7] [µg/mL],MIC [10] [µg/mL],MIC [11] [µg/mL],MIC [12] [µg/mL],MIC [13] [µg/mL],MIC [14] [µg/mL]
"NC(=O)c1ccc(CC2=C(C(=O)O)N3C(=O)[C@@H](NC(=O)C(C(=O)Oc4ccccc4)c4ccccc4)[C@H]3SC2)cc1 (mixture of isomers) [Example 3, 3-(p-Carbamoylbenzyl)-7β-(DL-α-phenoxycarbonylphenylacetamido)ceph-3-em-4-carboxylic acid]",5,–,10,1,10,1,5,10,5,10,5,–,–,10
